Data on 1 molecule can be found in BindingDB's records for doi:10.1021/ml3003346 (2012).

The assay can be described thus: Inhibition of EZH2-mediated proliferation of human LNCaP cells after 6 days by chemiluminescence analysis.

As a reminder, the IC50 is the concentration needed to halve the response being measured. A low value points to greater potency.

As for `Cc1cc(C)c(CNC(=O)c2cc(-c3ccc(N4CCN(C)CC4)nc3)cc3c2cnn3C(C)C)c(=O)[nH]1`, 4.5 µM corresponded to half-maximal inhibition (IC50).
